{"source": "patent US6544961B1", "about": "“Combinations comprising VX478, zidovudine, FTC and/or 3TC for use in the treatments of HIV” (SmithKline Beecham Corporation, priority 1996, dated 2003)", "origin": "cited, not measured here", "tested_on": "HIV", "conditions": "European Patent Specification No. 384536", "data": [{"molecule": "Nc1ccn(C2CSC(CO)O2)c(=O)n1", "note": "(racemic) [BCH-189, 4-amino-1-(2-hydroxymethyl-1,3-oxathiolan-5-yl)-(1H)-pyrimidin-2-one]", "values": [{"measurement": "anti-HIV activity", "result": "have been found to have anti-HIV activity"}]}]}
